Test results published in ChEMBL document CHEMBL1201862, “PubChem BioAssay data set” (2004).
“And” between values parts separate entries of the source, which are not always exact repeats. Equal entries are not always repeated. The source made the active and inactive calls.

What was measured:
[1] = biological target: T1, Interleukin-8 (Homo sapiens, UniProt P10145); assay: SAR analysis of GM-Tri-DAP induced IL-8 secretion in MCF-7/NOD1 cells - Set 2. [Related pubchem assays (depositor defined):AID1575, AID1578, AID2333]; type: functional, cell-based
T1 sequence (P10145 whole entry): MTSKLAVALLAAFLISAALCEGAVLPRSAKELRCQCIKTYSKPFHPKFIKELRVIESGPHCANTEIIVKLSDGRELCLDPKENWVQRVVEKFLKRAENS

[2] = biological target: Tumor necrosis factor (Homo sapiens, UniProt P01375); assay: analog potency on TNFa NF-kB signaling – cell-based, revised, SAR follow-up (AID 2337); type: functional
[3] = biological target: T1, Interleukin-8; assay: SAR analysis of Tumor necrosis factor alpha (TNF-alpha) induced IL-8 secretion in MCF-7/NOD1 cells - Set 2. [Related pubchem assays (depositor defined):AID1575, AID2250, AID2260]; type: functional, cell-based
[4] = biological target: Potassium voltage-gated channel subfamily KQT member 2 (Rattus norvegicus, UniProt O88943); assay: potentiation of rat KCNQ2 current – cell-based, retigabine-insensitive compounds, dose response (AID 2654); type: functional
[5] = biological target: T2, Carboxy-terminal domain RNA polymerase II polypeptide A small phosphatase 1 (Homo sapiens, UniProt Q9GZU7); assay: CTDSP1 inhibitors, concentration-response, biochemical, absorbance readout, ultra-high-throughput screen actives (AID 540297); type: functional
T2 sequence (Q9GZU7 whole entry): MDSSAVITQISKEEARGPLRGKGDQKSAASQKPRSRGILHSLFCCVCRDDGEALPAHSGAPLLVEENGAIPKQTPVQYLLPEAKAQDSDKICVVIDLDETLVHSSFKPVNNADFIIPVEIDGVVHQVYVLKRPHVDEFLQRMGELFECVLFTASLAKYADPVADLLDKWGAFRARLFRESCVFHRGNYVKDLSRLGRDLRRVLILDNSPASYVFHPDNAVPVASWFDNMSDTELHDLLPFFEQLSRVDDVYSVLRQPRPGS

[6] = biological target: Ras and Rab interactor 1/Tyrosine-protein kinase ABL1 (Homo sapiens, UniProt P00519+Q13671); type: functional;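 also: biochemical TR-FRET dose-response test measuring inhibition of binding between Rin1 and Abl proteins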
[7] = biological target: ORF 73 (Human herpesvirus 8, UniProt O40947); assay: KSHV LANA DNA-binding disruption – biochemical, fluorescence polarization, cherry-picked samples, dose response (AID 504725); design: species or system Human gammaherpesvirus 8;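 also: fluorescence polarization of a labeled DNA duplex reporting LANA DNA binding; potency is for inhibitors that block LANA binding to the DNA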
[8] = biological target: T3, DNA dC->dU-editing enzyme APOBEC-3G (Homo sapiens, UniProt Q9HC16); type: functional
[9] = biological target: Eukaryotic translation initiation factor 4H (Homo sapiens, UniProt Q15056); assay: eIF4H binding inhibition – biochemical, uHTS, fluorescence polarization, translation initiation inhibitor project, primary screen (AID 2012)
[10] = biological target: Polyadenylate-binding protein 1 (Homo sapiens, UniProt P11940); assay: blockers of PABP interaction with poly(A) – biochemical, fluorescence polarization, […] (AID 2014)
[11] = biological target: T4, DNA dC->dU-editing enzyme APOBEC-3A (Homo sapiens, UniProt P31941); assay: Dose Response confirmation of small molecule APOBEC3A DNA Deaminase Inhibitors via a fluorescence-based single-stranded DNA deaminase assay. [Related pubchem assays (depositor defined):AID493011, AID493024]; type: functional
[12] = HPDE-C7 pancreatic duct cell viability loss – fluorescence, HTS (AID 430); type: functional, cell-based; details: Homo sapiens
[13] = viability loss of HPDE-C7K cells – cell-based, fluorescence, HTS, primary screen (AID 431); type: functional; details: Homo sapiens
[14] = biological target: G-protein coupled receptor 55 (Homo sapiens, UniProt Q9Y2T6); assay: selective activators of receptor GPR55 – imaging, U2OS cells, beta-arrestin-GFP redistribution, primary screen (AID 1961); type: functional
[15] = biological target: Acyl-homoserine lactone acylase PvdQ (Pseudomonas aeruginosa (strain LESB58), UniProt Q9I194); assay: PvdQ acylase enzyme activity blockers – biochemical, fluorescence, plate reader and imaging, cherry-picks, dose response (AID 493231)
[16] = biological target: Cytochrome P450 2C9 (Homo sapiens, UniProt P11712); details: Potency
[17] = biological target: Cytochrome P450 2D6 (Homo sapiens, UniProt P10635); assay: qHTS Assay for Inhibitors and Substrates of Cytochrome P450 2D6. [Related pubchem assays: 410 ]; type: ADME; details: read-out: Potency
[18] = system: HeLa; assay: viability loss in HeLa cells – cell-based, 24 h, cherry-picked samples, cytotoxicity control, dose response (AID 504726); type: functional; details: Homo sapiens;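 also: potency for cytotoxicity as loss of luminescence signal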
[19] = HepG2 cell cytotoxicity, dose response, cytotoxicity control for non-replicating M. tuberculosis project (AID 489018); type: functional; details: Mycobacterium tuberculosis
[20] = Luminescence-based dose response cell-based high throughput screening assay for cytotoxic compounds using the IEC-6 intestinal epithelial cell line. [Related pubchem assays: 1858 (Summary AID.), 1825 (Counterscreen.), 1907 (Confirmation screen.)]; type: functional
[21] = NIH3T3 cell viability loss – ATP luminescence, mouse fibroblasts, counter-screen, dose response (AID 2010); type: functional, cell-based;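 also: cells exposed to compound for about 90 hours before reading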
[22] = system: INS1; assay: INS-1E survival protection against cytokine death – cell-based, luminescence, retest, dose response (AID 449756); type: functional; details: Rattus norvegicus;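 also: cell death triggered by IL-1 beta plus TNF-alpha plus IFN-gamma mixture; protective hits raise ATP signal compared with cytokine alone wells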
[23] = Vero E6 cell cytotoxicity, dose response, cytotoxicity control for non-replicating M. tuberculosis project, secondary assay (AID 492998); type: functional, VeroE6; details: Vero C1008
[24] = cells; type: functional
[25] = system: Streptococcus; assay: GAS UMAA2166 growth inhibition – luminescence, BacTiterGlo, counter-screen for streptokinase expression inhibitor project, dose response (AID 1915); type: functional, organism-based;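 also: potency for reduction of bacterial viability or growth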
[26] = system: Streptococcus sp. 'group A'; assay: Streptococcus pyogenes SK(-)GAS viability under kanamycin – luminescence, BacTiterGlo, confirmation, counter-screen for streptokinase expression inhibitor project, dose response (AID 1900); type: functional, organism-based
[27] = THP-1 cell cytotoxicity, dose response, cytotoxicity control for non-replicating M. tuberculosis project (AID 489025); type: functional
[28] = Trypanosoma cruzi growth suppression in host cells – NIH3T3 host cells, beta-gal luminescence, confirmation (AID 2044); type: functional, cell-based;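 also: intracellular parasites grown in NIH/3T3 mouse fibroblasts as host cells; luminescent beta-galactosidase reporter signal from transgenic T. cruzi replicating inside host cells; inhibitors lower the luminescence signal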
[29] = cells
[30] = biological target: Eukaryotic translation initiation factor 4E (Mus musculus, UniProt P63073); assay: blockers of eIF4G binding by eIF4E – biochemical, TR-FRET, dose response (AID 855); type: functional;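 also: potency for disrupting eIF4E binding to eIF4GI seen as loss of FRET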
[31] = biological target: T4, DNA dC->dU-editing enzyme APOBEC-3A; assay: A3A deaminase inhibition for selectivity – biochemical, dose response (AID 504722); type: functional
[32] = biological target: Oxytocin receptor (Homo sapiens, UniProt P30559); assay: Fluorescence-based cell-based high throughput dose response assay for agonists of the Oxytocin Receptor (OXTR). [Related pubchem assays: 2435 (Primary screen (OXTR agonists in singlicate)), 434991 (Counterscreen (V1R agonists in triplicate)), 2482 (Summary (OXTR agonists)), 434963 (Confirmation screen (OXTR agonists in triplicate))]; type: functional
[33] = biological target: T5, Voltage-gated N-type calcium channel alpha-1B subunit/Amyloid beta A4 precursor protein-binding family A member 1 (Homo sapiens, UniProt Q00975+Q02410); type: protein assay
[34] = viability of PTEN-deleted HCT116 cells – cell-based, HCT116 PTEN knockout, dose response (AID 1047); type: functional;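 also: HCT116 colon tumor cells with PTEN knocked out; cells exposed to compound for 60 hours before readout; potency for loss of cell viability measured by luminescence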
[35] = biological target: T5, Voltage-gated N-type calcium channel alpha-1B subunit/Amyloid beta A4 precursor protein-binding family A member 1; type: protein assay; remark: listed apart in the source
[36] = biological target: T3, DNA dC->dU-editing enzyme APOBEC-3G; assay: Dose Response confirmation of small molecule APOBEC3G DNA Deaminase Inhibitors via a fluorescence-based single-stranded DNA deaminase assay. [Related pubchem assays (depositor defined):AID493012, AID493028]; type: functional
[37] = biological target: Vasopressin V1a receptor (Homo sapiens, UniProt P37288); assay: Counterscreen for Oxytocin Receptor (OXTR) agonists: Fluorescence-based cell-based high throughput dose response assay to identify agonists of the vasopressin 1 receptor (V1R). [Related pubchem assays: 2435 (Primary screen (OXTR agonists in singlicate)), 434991 (Counterscreen (V1R agonists in triplicate)), 2482 (Summary (OXTR agonists)) …; type: functional

T4 sequence (P31941 whole entry): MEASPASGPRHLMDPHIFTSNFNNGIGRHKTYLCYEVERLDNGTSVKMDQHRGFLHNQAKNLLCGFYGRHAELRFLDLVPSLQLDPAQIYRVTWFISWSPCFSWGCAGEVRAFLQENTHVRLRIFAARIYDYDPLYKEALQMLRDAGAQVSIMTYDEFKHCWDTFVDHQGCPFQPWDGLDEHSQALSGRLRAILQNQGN
Chain of Tumor necrosis factor (P01375 whole entry): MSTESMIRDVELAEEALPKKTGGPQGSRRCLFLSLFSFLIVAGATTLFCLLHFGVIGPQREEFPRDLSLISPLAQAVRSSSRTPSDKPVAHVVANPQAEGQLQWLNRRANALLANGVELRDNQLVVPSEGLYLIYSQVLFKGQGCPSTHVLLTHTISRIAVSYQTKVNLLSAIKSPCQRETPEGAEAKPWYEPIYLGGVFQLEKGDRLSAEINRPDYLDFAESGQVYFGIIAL
T5 sequence (Q00975 whole entry): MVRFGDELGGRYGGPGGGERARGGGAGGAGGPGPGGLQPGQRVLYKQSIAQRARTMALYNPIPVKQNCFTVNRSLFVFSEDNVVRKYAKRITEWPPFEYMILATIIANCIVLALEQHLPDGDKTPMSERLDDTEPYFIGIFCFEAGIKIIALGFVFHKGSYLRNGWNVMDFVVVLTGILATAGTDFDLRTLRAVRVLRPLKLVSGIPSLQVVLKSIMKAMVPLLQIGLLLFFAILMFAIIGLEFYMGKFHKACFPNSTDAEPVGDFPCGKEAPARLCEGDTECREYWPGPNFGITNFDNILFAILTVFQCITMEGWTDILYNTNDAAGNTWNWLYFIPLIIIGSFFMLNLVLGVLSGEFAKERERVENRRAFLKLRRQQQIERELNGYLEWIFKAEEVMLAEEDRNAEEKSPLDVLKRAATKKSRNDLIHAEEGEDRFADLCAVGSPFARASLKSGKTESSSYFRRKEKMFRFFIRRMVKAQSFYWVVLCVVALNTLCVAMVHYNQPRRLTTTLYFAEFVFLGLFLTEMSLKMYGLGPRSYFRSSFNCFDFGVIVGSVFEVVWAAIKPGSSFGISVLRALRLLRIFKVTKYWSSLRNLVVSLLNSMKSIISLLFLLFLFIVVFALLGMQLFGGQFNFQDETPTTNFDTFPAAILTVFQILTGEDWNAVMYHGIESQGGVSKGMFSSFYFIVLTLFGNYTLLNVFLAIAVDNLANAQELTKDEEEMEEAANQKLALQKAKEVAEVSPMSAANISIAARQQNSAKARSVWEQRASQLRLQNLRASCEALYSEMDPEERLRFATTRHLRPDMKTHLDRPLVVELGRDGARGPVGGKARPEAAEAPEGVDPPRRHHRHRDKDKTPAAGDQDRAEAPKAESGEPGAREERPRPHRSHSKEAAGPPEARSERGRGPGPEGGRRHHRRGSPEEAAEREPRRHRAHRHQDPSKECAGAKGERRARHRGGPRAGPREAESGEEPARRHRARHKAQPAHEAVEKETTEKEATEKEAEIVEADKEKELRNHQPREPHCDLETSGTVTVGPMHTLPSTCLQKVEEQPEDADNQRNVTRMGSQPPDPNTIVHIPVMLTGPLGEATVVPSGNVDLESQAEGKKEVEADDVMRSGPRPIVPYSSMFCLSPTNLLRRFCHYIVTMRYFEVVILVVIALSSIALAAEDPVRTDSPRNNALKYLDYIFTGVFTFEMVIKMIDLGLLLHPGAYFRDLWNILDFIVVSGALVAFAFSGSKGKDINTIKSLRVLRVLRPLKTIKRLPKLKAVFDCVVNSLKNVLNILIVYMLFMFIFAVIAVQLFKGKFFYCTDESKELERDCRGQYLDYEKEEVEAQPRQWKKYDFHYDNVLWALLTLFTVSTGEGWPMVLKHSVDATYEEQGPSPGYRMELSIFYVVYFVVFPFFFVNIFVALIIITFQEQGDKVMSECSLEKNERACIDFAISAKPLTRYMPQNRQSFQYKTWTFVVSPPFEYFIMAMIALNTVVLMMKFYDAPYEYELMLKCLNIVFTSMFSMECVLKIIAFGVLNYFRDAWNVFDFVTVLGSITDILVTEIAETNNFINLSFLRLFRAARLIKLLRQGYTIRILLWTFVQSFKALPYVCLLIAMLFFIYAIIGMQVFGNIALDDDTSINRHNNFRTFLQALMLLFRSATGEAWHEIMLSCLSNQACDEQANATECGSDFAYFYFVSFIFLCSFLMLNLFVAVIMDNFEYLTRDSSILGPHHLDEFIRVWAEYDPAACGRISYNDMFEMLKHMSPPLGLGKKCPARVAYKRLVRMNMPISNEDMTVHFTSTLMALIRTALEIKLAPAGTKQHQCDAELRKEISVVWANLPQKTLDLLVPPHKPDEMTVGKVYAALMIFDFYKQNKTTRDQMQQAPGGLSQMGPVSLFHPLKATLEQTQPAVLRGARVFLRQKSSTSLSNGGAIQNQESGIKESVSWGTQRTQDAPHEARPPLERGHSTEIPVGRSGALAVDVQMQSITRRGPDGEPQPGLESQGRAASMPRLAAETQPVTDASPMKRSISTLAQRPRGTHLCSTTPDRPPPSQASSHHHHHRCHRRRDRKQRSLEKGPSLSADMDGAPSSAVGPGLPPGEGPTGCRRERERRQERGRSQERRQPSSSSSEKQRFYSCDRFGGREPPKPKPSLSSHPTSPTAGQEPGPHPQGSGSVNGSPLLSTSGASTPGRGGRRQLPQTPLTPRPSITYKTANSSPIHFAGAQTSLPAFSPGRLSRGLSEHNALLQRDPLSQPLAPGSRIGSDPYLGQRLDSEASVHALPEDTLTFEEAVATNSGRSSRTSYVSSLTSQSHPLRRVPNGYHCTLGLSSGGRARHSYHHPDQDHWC
T5 sequence (Q02410 whole entry): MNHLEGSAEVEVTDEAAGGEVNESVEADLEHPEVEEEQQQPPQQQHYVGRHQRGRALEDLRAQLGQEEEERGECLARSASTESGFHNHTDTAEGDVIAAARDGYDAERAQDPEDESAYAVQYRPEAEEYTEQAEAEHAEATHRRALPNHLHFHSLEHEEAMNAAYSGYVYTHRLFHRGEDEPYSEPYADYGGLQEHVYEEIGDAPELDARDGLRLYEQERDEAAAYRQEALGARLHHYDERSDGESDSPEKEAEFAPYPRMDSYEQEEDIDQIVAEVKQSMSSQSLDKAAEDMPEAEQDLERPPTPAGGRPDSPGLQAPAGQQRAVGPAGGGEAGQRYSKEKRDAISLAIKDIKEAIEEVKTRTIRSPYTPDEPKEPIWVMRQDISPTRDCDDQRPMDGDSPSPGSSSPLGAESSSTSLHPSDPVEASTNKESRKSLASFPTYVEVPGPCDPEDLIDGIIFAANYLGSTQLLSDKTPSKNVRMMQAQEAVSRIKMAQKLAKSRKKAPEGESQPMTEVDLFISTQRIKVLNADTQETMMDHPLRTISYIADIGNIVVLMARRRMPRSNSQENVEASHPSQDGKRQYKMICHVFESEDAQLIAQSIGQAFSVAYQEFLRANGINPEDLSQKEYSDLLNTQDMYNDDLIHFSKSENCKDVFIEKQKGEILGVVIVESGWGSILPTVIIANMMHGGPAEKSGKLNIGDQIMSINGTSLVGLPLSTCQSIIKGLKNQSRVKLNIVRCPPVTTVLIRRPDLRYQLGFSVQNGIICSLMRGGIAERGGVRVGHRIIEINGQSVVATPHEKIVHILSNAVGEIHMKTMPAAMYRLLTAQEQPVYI
Chain of Potassium voltage-gated channel subfamily KQT member 2 (O88943 whole entry, the tested form may be a part): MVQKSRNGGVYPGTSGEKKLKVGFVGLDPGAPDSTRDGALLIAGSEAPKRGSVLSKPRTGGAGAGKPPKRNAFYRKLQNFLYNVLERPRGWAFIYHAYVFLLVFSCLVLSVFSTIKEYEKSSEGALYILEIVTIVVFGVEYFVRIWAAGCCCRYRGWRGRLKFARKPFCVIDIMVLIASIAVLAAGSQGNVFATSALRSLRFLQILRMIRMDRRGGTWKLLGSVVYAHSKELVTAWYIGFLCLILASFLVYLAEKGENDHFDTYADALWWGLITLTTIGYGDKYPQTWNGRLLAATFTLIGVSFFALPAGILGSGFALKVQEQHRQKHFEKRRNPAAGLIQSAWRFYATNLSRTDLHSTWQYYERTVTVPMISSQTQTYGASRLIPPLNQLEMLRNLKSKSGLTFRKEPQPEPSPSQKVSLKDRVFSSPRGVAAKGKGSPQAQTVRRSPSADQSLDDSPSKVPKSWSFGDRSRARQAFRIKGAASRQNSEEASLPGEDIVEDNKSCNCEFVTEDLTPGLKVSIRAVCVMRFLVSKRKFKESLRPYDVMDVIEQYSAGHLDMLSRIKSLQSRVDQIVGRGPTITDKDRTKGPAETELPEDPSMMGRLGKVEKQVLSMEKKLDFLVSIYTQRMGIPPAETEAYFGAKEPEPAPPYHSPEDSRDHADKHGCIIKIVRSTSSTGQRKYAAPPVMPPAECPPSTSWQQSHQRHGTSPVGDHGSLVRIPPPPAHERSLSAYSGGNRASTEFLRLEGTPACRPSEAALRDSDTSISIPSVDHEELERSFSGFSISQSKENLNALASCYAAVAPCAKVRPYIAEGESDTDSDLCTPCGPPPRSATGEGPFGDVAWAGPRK
Chain of Cytochrome P450 2C9 (P11712 whole entry): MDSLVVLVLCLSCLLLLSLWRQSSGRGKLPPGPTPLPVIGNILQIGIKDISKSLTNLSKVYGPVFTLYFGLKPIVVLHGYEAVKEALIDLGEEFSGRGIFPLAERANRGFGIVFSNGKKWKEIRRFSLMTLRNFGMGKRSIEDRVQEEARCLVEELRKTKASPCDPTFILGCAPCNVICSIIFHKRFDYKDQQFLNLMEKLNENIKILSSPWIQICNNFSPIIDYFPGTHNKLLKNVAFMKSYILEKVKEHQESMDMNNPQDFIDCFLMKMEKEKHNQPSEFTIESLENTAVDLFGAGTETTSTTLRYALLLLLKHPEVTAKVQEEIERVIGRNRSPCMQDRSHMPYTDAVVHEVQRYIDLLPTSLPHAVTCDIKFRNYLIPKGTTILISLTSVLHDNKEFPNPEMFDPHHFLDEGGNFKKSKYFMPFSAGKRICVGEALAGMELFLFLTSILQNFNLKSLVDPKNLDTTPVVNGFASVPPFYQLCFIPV

In the case of `Nc1nc2ccccc2n1Cc1ccc(Cl)cc1`, the IC50 [1] is reported as 12.1 µM (active), the IC50 [2] is reported as 8.92 µM (active) and > 20 µM (inactive) and the IC50 [3] is reported as 19.8 µM (active).

In the case of `CCC(C)c1ccc(NC(=S)Nc2cccnc2)cc1` (centres undefined), the EC50 [4] is reported as 12.6 µM (active).

For `COc1cc(O)c(C(C)=O)c(CC(=O)O)c1`, the IC50 [5] was 3.5 µM (active), the IC50 [6] was 15.6 µM (inactive) and the AC50 [7] was 46.3 µM (active).

In the case of `Cc1nc2ccc(NC(=O)C3COc4ccccc4O3)cc2s1` (centres undefined), the IC50 [8] is reported as 6.02 µM (active), the IC50 [9] is reported as > 100 µM (inactive) and the IC50 [10] is reported as 11.1 µM (active). The IC50 [11] was 6.32 µM (active).

In the case of `Cc1ccc(NC(=O)Nc2cccnc2)cc1F`, the EC50 [4] is reported as 9.14 µM (active).

In the case of `COc1ccc(C2(O)CC3CCC(C2)N3c2cc(C)nc(-c3ccccc3)n2)cc1` (centres undefined), the EC50 [12] is reported as > 20 µM (not active), the EC50 [13] is reported as > 20 µM (not active) and the EC50 [14] is reported as 7.35 µM (active).

In the case of `Cc1ccc(C)c(S(=O)(=O)NC2CCSC2=O)c1` (centres undefined), the AC50 [15] is reported as 3.22 µM (active).

For `CC(=O)[C@@H]1[C@H]2[C@@H](C(=O)[C@H]3OC[C@H]2O3)[C@@H]2C=Cc3ccccc3N12`, the AC50 [16] was 31.6 µM (inconclusive) and the AC50 [17] was 39.8 µM (inconclusive).

In the case of `COc1ccc(-c2cc(=O)c3ccc(O)cc3o2)cc1`, the AC50 [16] is reported as 3.98 µM (inconclusive).

With `C/C(=N\Nc1nc2c(s1)CCCC2)c1ccc(Cl)cc1` the AC50 [18] was 83.5 µM (active).

With `C/C(=N\NC(=O)c1ccc(Cl)cc1)c1ccccn1` the CC50 [19] was 6.87 µM (active), the IC50 [20] was 0.546 µM (active) and the EC50 [21] was 1.04 µM (active). For the same molecule, the AC50 [22] was 0.34 µM (active), the CC50 [23] was 1.52 µM (active) and the IC50 [24] was 0.8 µM (active). The EC50 [25] was 7.47 µM (active), the EC50 [26] was 2.33 µM (active) and the CC50 [27] was 0.551 µM (active). The EC50 [28] was < 0.1 µM (active) and the EC50 [29] was 0.064 µM (active).

For `Cc1cc(Cl)ccc1/N=c1\ssnc1Cl`, the IC50 [30] was > 64 µM (inactive), the IC50 [31] was > 100 µM (inactive) and the EC50 [32] was > 29.9 µM (not active). The IC50 [33] was 2.3 µM (active), the EC50 [34] was 49 µM (active) and the IC50 [35] was 15.4 µM (active). For the same molecule, the IC50 [36] was 11.9 µM (active) and the EC50 [37] was > 29.9 µM (not active).
